{"source": "ChEMBL document CHEMBL3758090", "about": "“Investigation of α-conotoxin unbinding using umbrella sampling” (Bioorg Med Chem Lett, 2016)", "target": "T1, Soluble acetylcholine receptor (Aplysia californica, UniProt Q8WSF8)", "T1 sequence (Q8WSF8 whole entry)": "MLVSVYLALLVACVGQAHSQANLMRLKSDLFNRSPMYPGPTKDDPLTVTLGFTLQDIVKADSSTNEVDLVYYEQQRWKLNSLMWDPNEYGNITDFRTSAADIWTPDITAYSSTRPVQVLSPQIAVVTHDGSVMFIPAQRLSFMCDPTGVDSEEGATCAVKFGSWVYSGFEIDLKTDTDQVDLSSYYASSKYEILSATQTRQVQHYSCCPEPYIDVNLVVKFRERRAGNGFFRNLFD", "experiment": "Displacement [125I]alpha-bungarotoxin from untagged Aplysia californica AChBP expressed in Sf9 cells by competitive binding assay", "note": "pIC50: −log10 of the molar value."}
{"smiles": "C[C@@H]1NC(=O)[C@@H]2CSSC[C@H](NC(=O)CN)C(=O)N[C@@H](CSSC[C@@H](C(=O)O)NC(=O)[C@H](CCCNC(=N)N)NC(=O)[C@H](Cc3c[nH]c4ccccc34)NC1=O)C(=O)N[C@@H](CO)C(=O)N[C@@H](CC(=O)O)C(=O)N1CCC[C@H]1C(=O)N[C@@H](CCCNC(=N)N)C(=O)N2", "values": [{"measurement": "pIC50", "result": 7.48}]}
